Results on one compound are retold here after patent publication US12637413B2, “Fatty acid amide hydrolase (FAAH) cleavable prodrugs of thyromimetics and combination with peripherally restricted FAAH inhibitors” (Autobahn Therapeutics, Inc., priority 2021, dated 2026).

Data set [1] has as its target T1, recombinant human FAAH (rhFAAH) (Homo sapiens, UniProt O00519).
T1 construct: purchased Cayman Chemical (Ann Arbor, MI, USA)
T1 sequence (O00519 1-579): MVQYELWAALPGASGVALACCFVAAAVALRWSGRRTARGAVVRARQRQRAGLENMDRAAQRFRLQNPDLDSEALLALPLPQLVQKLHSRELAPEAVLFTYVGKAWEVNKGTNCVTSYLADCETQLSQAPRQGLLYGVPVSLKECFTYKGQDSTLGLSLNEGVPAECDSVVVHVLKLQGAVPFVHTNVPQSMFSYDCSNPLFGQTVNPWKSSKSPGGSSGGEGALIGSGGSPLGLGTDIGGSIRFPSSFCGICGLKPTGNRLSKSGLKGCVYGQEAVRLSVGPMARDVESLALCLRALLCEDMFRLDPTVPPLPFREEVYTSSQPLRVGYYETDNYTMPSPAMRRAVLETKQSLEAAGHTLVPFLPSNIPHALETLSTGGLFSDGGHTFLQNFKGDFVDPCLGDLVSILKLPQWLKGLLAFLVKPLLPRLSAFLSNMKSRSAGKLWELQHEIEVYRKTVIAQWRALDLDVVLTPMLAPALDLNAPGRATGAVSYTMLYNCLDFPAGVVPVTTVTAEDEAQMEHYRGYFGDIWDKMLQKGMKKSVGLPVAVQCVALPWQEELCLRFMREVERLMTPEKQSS
The data set is described as follows: FAAH substrate evaluation (acid metabolite formation). It counts as biochemical. The following applies: observed rate constant for acid metabolite formation; 0.5 ng/μL rhFAAH, 1 μM test compound, room temperature, 0-60 minutes. Here is the method:
Purified recombinant human FAAH (rhFAAH) was purchased from Cayman Chemical (Ann Arbor, MI, USA). The total volume for each incubation was 400 μL containing a final 0.5 ng/μL rhFAAH, 1 μM test compound, 1.25% ethanol or 1 μM PF-3845 (FAAH inhibitor), and 0.1% bovine serum albumin in Tris-EDTA buffer at pH 8.0). The positive control was LL-341001. The incubation was conducted at the room temperature. At 0, 5, 15, 30 and 60 minutes, an aliquot of 30 μL reaction mixtures was removed and mixed with 300 μL acetonitrile containing 5 ng/mL terfenadine and 10 ng/mL tolbutamide as internal standards to quench the reaction. The resulting mixture was centrifuged at 4000 rpm, 4° C. for 15 minutes, and 100 μL supernatant was ready for LC-MS/MS analysis to measure the formation of acid metabolite.
Acquity Ultra Performance LC system from Waters was used for sample analysis. The chromatography was performed on a reverse phase Kinetex 2.6 μm C18 column, 2.1×30 mm, 100 Å. The mobile phase A comprised of 0.1% formic acid in water and mobile phase B comprised of 0.1% formic acid in acetonitrile with a 2-min run time at the flow rate of 0.8 mL/min for the acid metabolite from positive control or a 1.5 min run time at the flow rate of 0.9 mL/min for the acid metabolite of test compounds. The mass spectrometer (API-5500 and API Q Trap 4000 Applied Biosystems/MDS SCIEX Instruments, Framingham, MA, USA) was operated under ESI positive or negative ion MRM mode.
The formation of acid metabolite was monitored and quantified using one calibration point of 1 μM. The observed rate constant (ke) for the acid metabolite formation was calculated by plotting the metabolite concentration versus time of incubation with the slope being ke and is shown in Table 1.

The target of data set [2] is T2, FAAH (Mus musculus, UniProt O08914).
T2 construct: from tissue; host or cells: living mice; plasma, liver and brain sampled
T2 sequence (O08914 1-579): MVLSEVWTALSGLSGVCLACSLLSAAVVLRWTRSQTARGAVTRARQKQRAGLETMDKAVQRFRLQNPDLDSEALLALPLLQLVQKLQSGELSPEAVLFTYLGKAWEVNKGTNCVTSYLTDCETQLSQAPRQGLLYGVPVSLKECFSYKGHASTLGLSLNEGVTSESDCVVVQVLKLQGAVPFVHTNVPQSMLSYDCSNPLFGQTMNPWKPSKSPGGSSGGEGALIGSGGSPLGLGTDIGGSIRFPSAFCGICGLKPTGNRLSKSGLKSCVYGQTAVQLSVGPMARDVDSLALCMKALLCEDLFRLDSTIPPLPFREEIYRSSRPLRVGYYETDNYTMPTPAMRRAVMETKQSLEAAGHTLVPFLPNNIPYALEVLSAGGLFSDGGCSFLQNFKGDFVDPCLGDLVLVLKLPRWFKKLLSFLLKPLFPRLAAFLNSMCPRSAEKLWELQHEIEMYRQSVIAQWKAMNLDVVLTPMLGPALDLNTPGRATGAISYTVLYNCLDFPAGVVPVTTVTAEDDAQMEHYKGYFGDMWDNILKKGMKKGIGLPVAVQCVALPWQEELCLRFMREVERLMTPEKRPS
Nature of the data set: tissue distribution after co-dosing prodrug ABX-002 with or without PFI or GFI. It counts as in vivo, mice. The note with it: plasma, liver and brain, co-dosing with PFI or GFI. Here is the method: The ability of globally-penetrant and peripherally-restricted FAAH inhibitors (GFI & PFI, respectively) to alter distribution of ABX-002 and ABX-002A was assessed.
Table 5 depicts the inhibition of active metabolite (LL-650177 or PF-044578454) in AUC in the plasma, liver, and brain after prodrug (ABX-002) co-dosing. Tissue distribution studies in mice confirm global & peripheral inhibition of FAAH.

`CNC(=O)COc1cc(Cl)c(Cc2ccc(O)c(C(C)C)c2)c(Cl)c1` [Compound 1]: in data set [1], the ke result is “A (ke is more than or equal to 0.1)”. Moreover, the “prodrug levels with FAAH inhibition” value in data set [2] was “did not change or slightly increased”.
